Source: article PMC9293070, “Bioisosteric Modification of To042: Synthesis and Evaluation of Promising Use‐Dependent Inhibitors of Voltage‐Gated Sodium Channels” (Chemmedchem, 2021)
Structures can show the parent of a compound that is named as a salt. Where two headings read alike, the source gives them in different places.

Columns and labels:
[1] = Apparent permeability across Caco-2 monolayer (BA and AB); type: in vitro ADME; conditions: human, 120 min, HBSS pH 7.4; for Papp A→B at 120 min, 100 µM: Apical-to-Basolateral; for Papp B→A at 120 min, 100 µM: Basolateral-to-Apical
Method: (§1) Permeability experiments. Details for permeability experiments. Preparation of Caco‐2 monolayer. This procedure has been previously reported by Colabufo et al.[65] Briefly, Caco‐2 cells were harvested with trypsin‐EDTA and seeded onto MultiScreen Caco‐2 assay system at a density of 10,000 cells per well. The culture medium was replaced every 48 h for the first 6 days and every 24 h thereafter. After 21 days in culture, the Caco‐2 monolayer was utilized for the permeability experiments. The Trans Epithelial Electrical Resistance (TEER) of the monolayers was measured daily before and after the experiment using an epithelial voltohmmeter (Millicell®‐ERS; Millipore, Billerica, MA). […] Drug transport experiment. […] Drugs were dissolved in Hanks’ balanced salt solution (HBSS, pH 7.4) and sterile filtered. After 21 days of cell growth, the medium was removed from filter wells and from the receiver plate. The wells were filled with 75 μL of fresh HBSS buffer and the receiver plate with 250 μL per well of the same buffer. This procedure was repeated twice, and the plates were incubated at 37 °C for 30 min. After incubation, the HBSS buffer was removed and drug solutions added to the filter well (75 μL). HBSS without the drug was added to the receiver plate (250 μL). The plates were incubated at 37 °C for 120 min. After incubation, samples were removed from the apical (filter well) and basolateral (receiver plate) sides of the monolayer and stored at −20 °C up to analysis. Compounds were lyophilized at −52 °C and 0.06 bars for 24 h and desalted by adding 500 μL of CH3CN (in order to remove phosphate salts coming from HBSS), then 500 μL of Ammonium Acetate (50 mM, pH 5) were added. The resulting solutions were analyzed by ESI‐MS in order to determine the concentration of drug in the samples. The concentration of tested compounds was measured using UV spectroscopy. The apparent permeability (P app), in units of nm per second, was calculated using the following equation: […]
(§2) where V A is the volume (in mL) in the acceptor well; Area is the surface area of the membrane (0.11 cm^2 of the well); time is the total transport time in seconds (7200 s); [drug]acceptor is the concentration of the drug measured by ESI‐MS analyses or UV spectroscopy; [drug]initial is the initial drug concentration (1 ⋅ 10^−4 M) in the apical or basolateral wells.

hNav1.4 [2] = target: T1, hNav1.4 (Homo sapiens, UniProt P35499); conditions: cited from earlier work
T1 sequence (P35499 whole entry): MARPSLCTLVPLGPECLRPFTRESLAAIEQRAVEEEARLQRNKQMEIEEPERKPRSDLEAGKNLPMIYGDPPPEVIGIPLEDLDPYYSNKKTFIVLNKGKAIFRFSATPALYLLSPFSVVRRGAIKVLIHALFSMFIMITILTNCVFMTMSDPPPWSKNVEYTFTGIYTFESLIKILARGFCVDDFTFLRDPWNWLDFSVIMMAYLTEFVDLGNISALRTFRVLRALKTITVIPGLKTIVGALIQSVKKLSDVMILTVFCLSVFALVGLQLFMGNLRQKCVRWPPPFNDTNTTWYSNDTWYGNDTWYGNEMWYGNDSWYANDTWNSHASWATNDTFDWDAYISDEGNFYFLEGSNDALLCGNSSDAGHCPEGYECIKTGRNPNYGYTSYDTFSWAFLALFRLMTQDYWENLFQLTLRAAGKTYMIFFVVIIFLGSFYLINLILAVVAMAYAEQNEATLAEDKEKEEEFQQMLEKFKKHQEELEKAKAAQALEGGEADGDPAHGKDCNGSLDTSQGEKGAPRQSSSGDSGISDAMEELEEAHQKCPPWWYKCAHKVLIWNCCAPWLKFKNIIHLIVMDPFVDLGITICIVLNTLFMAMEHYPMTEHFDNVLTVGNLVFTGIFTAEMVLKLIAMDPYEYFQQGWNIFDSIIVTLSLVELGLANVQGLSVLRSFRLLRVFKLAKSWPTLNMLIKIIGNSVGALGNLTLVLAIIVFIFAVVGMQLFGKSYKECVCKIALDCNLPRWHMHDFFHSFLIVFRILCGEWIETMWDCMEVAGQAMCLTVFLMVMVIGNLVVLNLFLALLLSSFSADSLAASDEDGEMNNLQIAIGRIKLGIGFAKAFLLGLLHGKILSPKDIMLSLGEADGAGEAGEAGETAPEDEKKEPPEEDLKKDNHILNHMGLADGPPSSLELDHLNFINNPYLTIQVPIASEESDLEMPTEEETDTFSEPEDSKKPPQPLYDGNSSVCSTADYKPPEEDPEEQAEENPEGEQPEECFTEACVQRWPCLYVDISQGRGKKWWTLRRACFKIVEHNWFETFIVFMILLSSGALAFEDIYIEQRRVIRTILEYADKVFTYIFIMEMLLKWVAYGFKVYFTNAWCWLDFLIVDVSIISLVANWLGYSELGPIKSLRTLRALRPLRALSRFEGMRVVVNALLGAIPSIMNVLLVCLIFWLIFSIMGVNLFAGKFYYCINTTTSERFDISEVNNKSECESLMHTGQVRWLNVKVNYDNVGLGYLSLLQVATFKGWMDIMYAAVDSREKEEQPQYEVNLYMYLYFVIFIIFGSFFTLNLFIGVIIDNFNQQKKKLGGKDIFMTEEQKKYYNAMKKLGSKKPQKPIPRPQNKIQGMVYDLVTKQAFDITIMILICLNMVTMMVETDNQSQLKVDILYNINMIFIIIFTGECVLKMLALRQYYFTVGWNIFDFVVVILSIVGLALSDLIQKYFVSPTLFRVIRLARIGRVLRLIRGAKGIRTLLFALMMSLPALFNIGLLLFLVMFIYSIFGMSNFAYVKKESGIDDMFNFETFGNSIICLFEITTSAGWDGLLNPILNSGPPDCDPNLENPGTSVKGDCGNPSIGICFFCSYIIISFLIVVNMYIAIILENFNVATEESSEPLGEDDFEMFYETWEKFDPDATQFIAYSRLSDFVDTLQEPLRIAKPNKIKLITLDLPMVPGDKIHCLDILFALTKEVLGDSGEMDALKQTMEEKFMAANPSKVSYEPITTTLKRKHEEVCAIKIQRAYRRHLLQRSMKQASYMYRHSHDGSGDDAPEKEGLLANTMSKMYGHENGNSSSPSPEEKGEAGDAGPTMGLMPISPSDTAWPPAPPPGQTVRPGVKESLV

hNav1.4 [3] = target: T1, hNav1.4; assay: Patch-clamp block of hNav1.4 sodium currents in HEK293T cells; type: cell-based; conditions: for IC50: HEK293T cells, value ± standard error of the fit; for TB/PB (ratio IC50 tonic block/IC50 phasic block): use-dependence
Method: Patch clamp experiments. Exploratory compounds were tested on sodium currents recorded in HEK293T cells (human embryonic kidney cell line) permanently expressing the wild‐type human Nav1.4 sodium channel, as previously described.[14, 61] Whole‐cell sodium currents were recorded at room temperature (∼22 °C) using Axon hardware and software (Axon Instruments Inc., Union City, CA, USA). Bath solution contained (mM): 150 NaCl, 4 KCl, 2 CaCl2, 1 MgCl2, 5 HEPES and 5 glucose (pH 7.4). Pipette solution contained (mM): 120 CsF, 10 CsCl, 10 NaCl, 5 EGTA, and 5 HEPES (pH 7.2). Pipette resistance was […]. Stabilization of the whole‐cell configuration was allowed for 5 minutes before to record sodium currents elicited from a holding potential of −120 mV using 25 ms‐long test pulses at −30 mV applied every 10 or 0.1 sec (0.1 and 10 Hz frequencies). The patched cell was continuously perfused by control or drug‐supplemented bath solution. To limit errors due to rundown and voltage‐dependence shifts, no more than two drug concentrations were tested on each cell. The I DRUG/I CTRL ratio (mean±S.E.M. from at least 3 cells) was plotted against drug concentration.
The half‐maximum inhibitory concentration (IC50) and slope factor (nH) are given with the standard error of the fit.

P-gp = assay: Apparent permeability across Caco-2 monolayer (BA and AB); type: in vitro ADME; conditions: human, pH 7.4; ratio of Papp BA to Papp AB
Method: as §1, §2

HeLa cells [4] = assay: ROS production by DCF staining, flow cytometry; type: cell-based, human
Method: (§3) Cell culture. Cervical cancer cell lines (HeLa) were cultured in Dulbecco's modified eagle medium (DMEM) supplemented with 10 % fetal bovine serum (FBS), 1 % glutamine, and 1 % penicillin/streptomycin (all purchased from Euroclone, Italy) in a humidified incubator at 37 °C and 5 % CO2 and 95 % relative humidity.
(§4) Flow cytometry analysis. In order to detect ROS production after drugs treatment,[66, 67] cells at 3×10^5 cells were seeded in 6‐well plates in DMEM with 10 % FBS and cultured overnight. The following day, cells were washed twice with PBS and kept in DMEM without FBS for 2 h. […] Antibiotics were omitted during pharmacological compound assays. After incubation period, cells were washed twice with HBSS, and stained with 5 μM of 2′,7′‐dichorofluorescein (DCFA‐DA) and dihydrorhodamine (DHR) (Thermo Fischer Scientific, Italy) for 30 min in dark. After washing, cells were resuspended in HBSS and analyzed using an Attune Acoustic Focusing Cytometer (Thermo Fisher Scientific) equipped with a 488 nm laser. Thereafter, DCFA‐DA stained cells were co‐stained with 1 μg/mL of 7‐aminoactinomycin D (7‐AAD) (Thermo Fischer Scientific, Italy), incubated on ice for 45 min in dark in order to asses viable and non‐viable cells, and then flow cytometry analysis was carried out.

HeLa cells [5] = assay: Cell viability by 7-AAD co-staining, flow cytometry; type: cell-based, human; conditions: 1 and 50 μM, 24 h
Method: as §3, §4

HeLa cells [6] = assay: Mitochondrial ROS production by DHR staining, flow cytometry; type: cell-based, human; conditions: 50 μM, compared with 13 a
Method: as §3, §4

[7] = 0.1 Hz stimulation, read-out: Tonic Block IC50 at 0.1 Hz
[8] = 10 Hz stimulation, read-out: Phasic Block IC50 at 10 Hz

SMILES	melting point [°C]	Papp A→B at 120 min, 100 µM [1] [×10⁻⁶ cm/s]	Papp B→A at 120 min, 100 µM [1] [×10⁻⁶ cm/s]	nH (slope factor), tonic block (hNav1.4 [2]; 0.1 Hz stimulation)	nH (slope factor), phasic block (hNav1.4 [2]; 10 Hz stimulation)	nH (slope factor), tonic block (hNav1.4 [3]; 0.1 Hz stimulation)	IC50 (hNav1.4 [3]; [7]) [µM]	nH (slope factor), phasic block (hNav1.4 [3]; 10 Hz stimulation)	IC50 (hNav1.4 [3]; [8]) [µM]	TB/PB (ratio IC50 tonic block/IC50 phasic block) (hNav1.4 [3])	efflux ratio at 120 min, 100 µM (P-gp)	other results
Cc1cccc(C)c1NC(=O)CC(C)NCc1ccc2ccccc2c1 (stereo not drawn) (as salt: hydrochloride) [13 b, N‐(2,6‐Dimethylphenyl)‐3‐[(naphthalen‐2‐ylmethyl)amino]butanamide]	199 to 201											
Cc1cccc(C)c1OCCC(C)NCc1cccc2ccccc12 (stereo not drawn) (as salt: hydrochloride) [17 a, N‐[(Naphthalen‐1‐yl)methyl]‐4‐[(2,6‐dimethyl)phenoxy]butan‐2‐amine]	183 to 184											
Cc1cccc(C)c1OCCC(C)NCc1ccc2ccccc2c1 (stereo not drawn) (as salt: hydrochloride) [17 b, N‐[(Naphthalen‐2‐yl)methyl]‐4‐[(2,6‐dimethyl)phenoxy]butan‐2‐amine]	178 to 179											
Cc1cccc(C)c1NC(=O)CC(C)NCc1cccc2ccccc12 (stereo not drawn) [13 a, N‐(2,6‐Dimethylphenyl)‐3‐[(naphthalen‐1‐ylmethyl)amino]butanamide]		56.6	223	1.3±0.1	0.8±0.1							
Cc1cccc(C)c1NC(=O)CC(C)NCc1ccc2ccccc2c1 (stereo not drawn) [13 b, N‐(2,6‐Dimethylphenyl)‐3‐[(naphthalen‐2‐ylmethyl)amino]butanamide]		43.8	216			1.1±0.1	147 ± 12	0.8±0.1	14 ± 1.8	10.5	4.9	
Cc1cccc(C)c1OCCC(C)NCc1cccc2ccccc12 (stereo not drawn) [17 a, N‐[(Naphthalen‐1‐yl)methyl]‐4‐[(2,6‐dimethyl)phenoxy]butan‐2‐amine]		25.9	180			1.2±0.2	1080 ± 150	0.8±0.1	57 ± 8	18.9	7.1	fold higher IC50 value at 10 Hz than To042 (hNav1.4 [3]; 10 Hz, relative to To042): 6 fold; percentage of ROS producing cells related to untreated cells (% DCF (+) cells) (HeLa cells [4]; 1 μM, 6 h exposure): no significant effects; percentage of ROS producing cells related to untreated cells (% DCF (+) cells) (HeLa cells [4]; 50 μM, 6 h exposure): significant cytoprotective effect; ROS production related to untreated cells (DCF fluorescence median) (HeLa cells [4]; 50 μM, 24 h exposure): ~3 fold; percentage of ROS producing cells related to untreated cells (% DCF (+) cells) (HeLa cells [4]; 24 h exposure, regardless of concentrations (1 and 50 μM)): prominent cytoprotective effect; cellular viability (7-AAD positive cells untreated related) (HeLa cells [5]): not affected; mitochondrial ROS levels (DHR) (HeLa cells [6]): lower ROS levels; percentage of mitochondrial ROS producing cells (DHR) (HeLa cells [6]): lower percentage of ROS producing cells
Cc1cccc(C)c1OCCC(C)NCc1ccc2ccccc2c1 (stereo not drawn) [17 b, N‐[(Naphthalen‐2‐yl)methyl]‐4‐[(2,6‐dimethyl)phenoxy]butan‐2‐amine]		49.6	199			0.9±0.1	88 ± 11	1.1±0.1	8.8 ± 0.6	10	4	
Cc1cccc(C)c1OCC(C)N (stereo not drawn) [mexiletine]				1.2±0.1	0.9±0.1							IC50 (hNav1.4 [2]; [7]): 256 ± 25 µM; IC50 (hNav1.4 [2]; [8]): 46 ± 5 µM
Cc1cccc(C)c1NC(=O)C(C)N (stereo not drawn) [tocainide]		49.6	196	1.0±0.1	1.1±0.2						3.9	IC50 (hNav1.4 [2]; [7]): 700 ± 70 µM; IC50 (hNav1.4 [2]; [8]): 182 ± 24 µM; TB/PB (ratio IC50 tonic block/IC50 phasic block) (hNav1.4 [2]; use-dependence): 3.8
